Data published in patent US6368788B1 (priority 1987, dated 2002).
Marks after values point to notes of the source that are not given here.

Legend:
[1] = tested on: peripheral blood lymphocytes; assay: Chernobyl Protocol F: L-Glu-L-Trp at 3 years post-radiation exposure; assay type: in vivo, human
Protocol: An increased incidence of cancer is one sequelae known to occur in subjects exposed to radiation, presumably because of decreased immune surveillance and elimination of tumor cells. […] An attempt to normalize immune parameters was attempted in 70 of the latter patients exposed 3 years previously to 0.2-0.5 Gy of radiation at Chernobyl. […] The subjects were treated with L-Glu-L-Trp in an attempt to alleviate the immune defects. The treatment course consisted of daily doses of 100 μg L-Glu-L-Trp administered im for 3-5 days. Sixty three subjects, similarly exposed to radiation in Chernobyl were used as untreated controls.

T-lymphocyte function = assay: Naval specialists with occupational immunologic impairments; assay type: in vivo, human; details: 3 daily intranasal doses of 100 mcg
Protocol: A clinical trial was conducted of 152 naval specialists (aged 20-40 years) with evidence of occupational immunologic impairments resulting from their exposure to radiation and occupational toxins in the Kosomolets nuclear submarine sinking off the coast of […]. L-Glu-L-Trp was evaluated for its possible effects on cellular and/or humoral immunity. Approximately 87% of the servicemen entered into the trial had moderate to severely impaired T-lymphocyte functional activity, (i.e., evidenced by decreased LMIR and blastogenesis with Con-A) and reduced neutrophil phagocytic activity (i.e., 30-40% of normal). Immune parameters were determined before and after a routine 21-24 day rest period, during a normal rest/recuperation and training rotation. Servicemen were divided into two groups, the first (control) group received no treatment, and the second (experimental) group of 88 servicemen received three consecutive daily intranasal doses of 100 mcg L-Glu-L-Trp.

Transfusion reactions = assay: Transfusion reactions; set-up: species or system human; details: in vivo
Protocol: Seventy-six patients (76) requiring hemotransfusion therapy with allogeneic blood were treated with L-Glu-L-Trp in the post-operative period, starting at day 4-6 post-op. Seventy-two patients (72) in a control group received conventional post-operative treatment. L-Glu-L-Trp treatment was administered as a single daily im dose of 100 μg on each of 5 consecutive days, or alternatively, at a dose of 1 μg/kg delivered on the same schedule by the intranasal route.

[2] = Chronic liver disease: jaundice and systemic toxicity; set-up: species or system human; details: in vivo
Pneumocystis carinii = Pneumocystis carinii lung infection in cortisone-immunocompromised rats; assay type: in vivo; details: for Lung (bacteria): mean ± S.E., magnification 400X; for Lymphocytes / Neutrophils / Total Leukocytes / Lymphocytes (% Normal) / Neutrophils (% normal) / Total Leukocytes (% normal): peripheral blood at 79 days; for Lymphocytes (% Normal) / Neutrophils (% normal) / Total Leukocytes (% normal): % of day 0
Protocol: Corticosteroids were administered to rats to induce an immunocompromised state in which an opportunistic infection with Pneumocystis carinii could be established. The immunocompromised state was induced by administering cortisone acetate im twice weekly at a dose of 25 mg/kg over the entire 12 week course of the study. Pneumocystis carinii lung infection was initiated by intranasal instillation on day 0. Prophylactic tetracycline was administered po in the drinking water ([…]), and peripheral blood differential counts were monitored over the next 12 weeks. In control (untreated) Pneumocystis-infected animals, differential counts, body weight, and lymphocyte counts began dropping at about 30-39 days and lung infection was evident histologically by about day 60-69. At day 80, tetracycline treatment was discontinued in all groups. By day 80 in this animal model, mean body weight of the animals had dropped by approximately 30% from the values recorded on day 0. Groups were comprised of 15 rats each.
L-Glu-L-Trp treatments were administered according to the following protocol: 10 consecutive daily im injections of 10 μg/kg or 100 μg/kg of L-Glu-L-Trp on days 0 through 9, 30 through 39, and 60 through 69 of the study. Differential cell counts in peripheral blood (TABLE 80) and lung histology (i.e., with enumeration of the number of P. carinii/10 microscopic fields—at 400× magnification) were used to monitor the course of the opportunistic infection.

Q: For L-Glu-L-Trp, which “B-Ig+, %” value ([1]; After L-Glu-L-Trp) is on record?
A: 11.0 ± 0.3%

Q: And the “B-Ig+, abs” value ([1]; After L-Glu-L-Trp)?
A: 0.23 ± 0.04 10^9/L

Q: And the “B-IgA+, %” value ([1]; After L-Glu-L-Trp)?
A: 1.9 ± 0.3%

Q: What about the “B-IgA+, abs” value ([1]; After L-Glu-L-Trp) of the same substance?
A: 0.04 ± 0.002 10^9/L

Q: And the “B-IgG+, %” value ([1]; After L-Glu-L-Trp)?
A: 4.8 ± 0.5%

Q: And the “B-IgG+, abs” value ([1]; After L-Glu-L-Trp)?
A: 0.09 ± 0.007 10^9/L

Q: And the “B-IgM+, %” value ([1]; After L-Glu-L-Trp)?
A: 4.1 ± 0.6 %

Q: And the “B-IgM+, abs” value ([1]; After L-Glu-L-Trp)?
A: 0.12 ± 0.003** 10^9/L

Q: And the “CD2-DR+, %” value ([1]; After L-Glu-L-Trp)?
A: 32 ± 3 %

Q: What about the “CD2-DR+, abs” value ([1]; After L-Glu-L-Trp) of the same substance?
A: 0.66 ± 0.10** 10^9/L

Q: And the “CD3, %” value ([1]; After L-Glu-L-Trp)?
A: 59.2 ± 2.1 %

Q: And the “CD3, abs” value ([1]; After L-Glu-L-Trp)?
A: 1.21 ± 0.15 10^9/L

Q: And the “CD4, %” value ([1]; After L-Glu-L-Trp)?
A: 36.2 ± 1.7%

Q: And the “CD4, abs” value ([1]; After L-Glu-L-Trp)?
A: 0.74 ± 0.08 10^9/L

Q: What about the “CD8, %” value ([1]; After L-Glu-L-Trp) of the same substance?
A: 23.2 ± 2.1 %

Q: And the “CD8, abs” value ([1]; After L-Glu-L-Trp)?
A: 0.48 ± 0.07** 10^9/L

Q: And the IgA ([1]; After L-Glu-L-Trp)?
A: 1.2 ± 0.4 g/L

Q: What about the IgG ([1]; After L-Glu-L-Trp) of the same substance?
A: 10.9 ± 1.3 g/L

Q: And the IgM ([1]; After L-Glu-L-Trp)?
A: 1.06 ± 0.06 g/L

Q: And the “LMI, %” value ([1]; After L-Glu-L-Trp)?
A: 75 ± 6 %

Q: And the “Leukocytes, abs” value ([1]; After L-Glu-L-Trp)?
A: 5.6 ± 0.4 10^9/L

Q: And the “Lymphocytes, abs” value ([1]; After L-Glu-L-Trp)?
A: 2.1 ± 0.3 10^9/L

Q: And the T4/T8 ([1]; After L-Glu-L-Trp)?
A: 1.58 ± 0.04

Q: And the “Cases with restoration of CD2+ counts” value ([1]; in vivo)?
A: 85%

Q: What about the Clinical outcome ([1]; in vivo) of the same substance?
A: disappearance of symptoms associated with the asthenic syndrome

Q: And the “T-lymphocyte function, T4/T8 ratio, granulocyte lysosomal cation proteins” value (T-lymphocyte function)?
A: pronounced increase

Q: And the Clinical outcome (Transfusion reactions)?
A: None of L-Glu-L-Trp treated patients showed clinical manifestations of allogeneic hemotransfusion reactions

Q: What about the “Seropositive patients with a positive response to therapy” value [2] of the same substance?
A: 21 of the 29

Q: What about the “Seropositive patients with no detectable change” value [2] of the same substance?
A: 8

Q: What about the “Numbers of lung bacteria, % of saline treated control” value (Pneumocystis carinii; 10 μg/kg) of the same substance?
A: about 33%

Q: And the “Lung (bacteria)” value (Pneumocystis carinii; 10 μg/kg im)?
A: 53 ± 32 P. carinii bacteria per 10 sections

Q: And the “Numbers of lung bacteria, % of saline treated control” value (Pneumocystis carinii; 100 μg/kg)?
A: ~43%

Q: What about the “Lung (bacteria)” value (Pneumocystis carinii; 100 μg/kg im) of the same substance?
A: 70 ± 33 P. carinii bacteria per 10 sections

Q: And the “Leukocyte counts, % of normal” value (Pneumocystis carinii; day 79)?
A: 45-47%

Q: And the “Lymphocyte counts, % of normal” value (Pneumocystis carinii; day 79)?
A: 45%

Q: What about the Lymphocytes (Pneumocystis carinii; 10 μg/kg im) of the same substance?
A: 4.7 ± 1.2 ×10^6/ml

Q: And the Neutrophils (Pneumocystis carinii; 10 μg/kg im)?
A: 2.0 ± 0.7 ×10^6/ml

Q: What about the “Total Leukocytes” value (Pneumocystis carinii; 10 μg/kg im) of the same substance?
A: 8.1 ± 2.3 ×10^6/ml

Q: And the “Lymphocytes (% Normal)” value (Pneumocystis carinii; 10 μg/kg im)?
A: 45%

Q: What about the “Neutrophils (% normal)” value (Pneumocystis carinii; 10 μg/kg im) of the same substance?
A: 41%

Q: And the “Total Leukocytes (% normal)” value (Pneumocystis carinii; 10 μg/kg im)?
A: 47%

Q: And the Lymphocytes (Pneumocystis carinii; 100 μg/kg im)?
A: 4.7 ± 1.4 ×10^6/ml

Q: What about the Neutrophils (Pneumocystis carinii; 100 μg/kg im) of the same substance?
A: 1.5 ± 0.5 ×10^6/ml

Q: And the “Total Leukocytes” value (Pneumocystis carinii; 100 μg/kg im)?
A: 7.8 ± 1.8 ×10^6/ml

Q: And the “Lymphocytes (% Normal)” value (Pneumocystis carinii; 100 μg/kg im)?
A: 45%

Q: What about the “Neutrophils (% normal)” value (Pneumocystis carinii; 100 μg/kg im) of the same substance?
A: 31%

Q: And the “Total Leukocytes (% normal)” value (Pneumocystis carinii; 100 μg/kg im)?
A: 45%
